A short description of this series: solvent given as SMILES.
[1] abbreviates: in c1cc(-c2cccc(-n3c4ccccc4c4ccccc43)c2)cc(-n2c3ccccc3c3ccccc32)c1.

The structures appear in SMILES notation.

Regarding `CN(C)c1ccc2nc(/C=C/c3cc4c5c(c3)CCCN5CCC4)c(=O)oc2c1`, the fluorescence lifetime by setting is: (in C1COCCO1) 2.9 ns; (in CC#N) 0.22 ns; (in CC(C)=O) 0.8 ns; (in CCCCCCC) 2.02 ns; (in CCOC(C)=O) 2.4 ns; (in CN(C)C=O) 0.18 ns. The fluorescence lifetime runs as follows: (in CS(C)=O) 0.32 ns; (in Cc1ccccc1) 2.6 ns; (in ClC(Cl)Cl) 1.35 ns; (in ClCCl) 1.35 ns.

Compound `c1ccc(N(c2ccccc2)c2c3ccccc3c(N(c3ccccc3)c3ccccc3)c3ccccc23)cc1` had a fluorescence lifetime (in Cc1ccccc1) of 13 ns.

With `CCc1c(C)[nH]c(C2=[N+]3C(=Cc4c(C)c(CC)c(/C=C/c5ccc(N(C)C)cc5)n4[B-]3(F)F)c3ccccc32)c1C`, the fluorescence lifetime (in ClCCl) came out at 2.3 ns.

As for `Cc1cc2nc3[nH]c(=O)n(C)c(=O)c3nc2cc1C`, the fluorescence lifetime (in CC#N) came out at 0.64 ns.

As for `COc1ccc2nc(N)sc2c1`, the fluorescence lifetime reads like this: (in CC#N) 4.4 ns; (in ClCCl) 3.86 ns.

In the case of `C[Si](C)(C)c1ccc2ccc3c([Si](C)(C)C)ccc4ccc1c2c43`, the fluorescence lifetime (in CCCCCC) came to 53.7 ns, the fluorescence lifetime (in CO) was determined as 71.8 ns and the fluorescence lifetime (in ClCCl) stood at 65.5 ns.

`Cc1cc(C)c(B(c2ccc(C#Cc3cc4ccc5cc(C#Cc6ccc(B(c7c(C)cc(C)cc7C)c7c(C)cc(C)cc7C)cc6)cc6ccc(c3)c4c56)cc2)c2c(C)cc(C)cc2C)c(C)c1` returned a fluorescence lifetime (in Cc1ccccc1) of 58 ns.

`N#Cc1cc(N2c3ccccc3Oc3ccccc32)c(N2c3ccccc3Oc3ccccc32)cc1C#N`: the fluorescence lifetime (in c1ccc2c(c1)c1ccccc1n2-c1ccc(-c2ccc(-n3c4ccccc4c4ccccc43)cc2)cc1) was found to be 20 ns.

For the setting “in CC#N”, `COC(=O)C12N=N[C@](C(=O)OC)(C3C4C=CC(C4)C31)[C@@H]1C[C@H]12` (stereo partly specified) yielded a fluorescence lifetime of 131 ns.

As for `C[Si](C)(C)c1ccc(-c2ccc(-c3ccc(-c4ccc(-c5ccc([Si](C)(C)C)cc5)s4)c4nsnc34)s2)cc1`, the fluorescence lifetime (in C1CCOC1) turned out to be 6.9 ns.

Consider `c1ccc(-c2nc(-c3ccc(N4CCCC4)cc3)cc(-c3ccc4ccccc4c3)n2)cc1`, for which, for the setting “in ClC(Cl)Cl”, the fluorescence lifetime turned out to be 2.4 ns.

On to `C(=C\c1ccc2ccccc2c1)/c1ccc(N(c2ccccc2)c2ccccc2)cc1`, for which the fluorescence lifetime amounted to 1.09 ns (in CC#N) and 0.4 ns (in CCCCCC).

For the setting “in ClCCl”, `COc1ccc(-c2c3ccccc3c(C#Cc3ccccc3)c3cc4cc(C)sc4cc23)cc1` showed a fluorescence lifetime of 7.1 ns.

`N#Cc1cc2ccc([O-])cc2oc1=O` came in with a fluorescence lifetime (in O) of 3.96 ns.

As to `CC(C)(C)c1ccc2c(c1)c1cc(C(C)(C)C)ccc1n2-c1cc(C(=O)c2ccncc2)cc(-n2c3ccc(C(C)(C)C)cc3c3cc(C(C)(C)C)ccc32)c1`, the fluorescence lifetime under setting [1] was determined as 28.1 ns.

In the case of `Cc1ccc(-[c+]2c3ccccc3oc3ccccc32)cc1`, the fluorescence lifetime (in CC#N) worked out at 2.1 ns.

`CCN(CC)c1ccc2cc(C#N)c(=O)oc2c1` displayed a fluorescence lifetime (in ClCCl) of 2.7 ns.

For `COc1ccc(C#Cc2c3cc4ccccc4cc3c(C#Cc3ccc(OC)cc3)c3cc4ccccc4cc23)cc1`, the fluorescence lifetime (in ClCCl) was determined as 4.6 ns.

Take `CC1=N/C(=C\c2cccc(N(C)C)c2)C(=O)N1C`: the fluorescence lifetime stood at 15.3 ns (in C1CCOC1), 8.6 ns (in CC#N) and 22.5 ns (in CCCCCC).

As to `c1ccc(-c2nc(-c3ccc(-c4nc(-c5ccccc5)c(-c5ccccc5)[nH]4)cc3)[nH]c2-c2ccccc2)cc1`, the fluorescence lifetime by setting is: (in CC#N) 1.11 ns; (in CS(C)=O) 1.05 ns.

`c1ccc(N(c2ccccc2)c2c3ccccc3cc3ccccc23)cc1`: the fluorescence lifetime (in Cc1ccccc1) came out at 21 ns.

On to `CCCCCCOc1ccc2oc3c(c2c1)=CC1=C(c2ccccc2C)c2cc4c5cc(OCCCCCC)ccc5oc4n2[B-](F)(F)[N+]=31`, for which the fluorescence lifetime by setting is: (in C1CCCCC1) 4.12 ns; (in CCOC(C)=O) 3.81 ns; (in CO) 1.67 ns.

In the case of `c1ccc(-c2ccc(-c3ccc(-c4ccccc4)cc3)cc2)cc1`, the fluorescence lifetime by setting is: (in C1CCCCC1) 0.8 ns; (in C1CCOC1) 1 ns.

`O=[N+]([O-])c1ccc2c(c1)-c1c3c(c4c([n+]1[B-](F)(F)O2)CCc1ccccc1-4)CCc1ccccc1-3` had a fluorescence lifetime (in ClCCl) of 0.63 ns.

Compound `CC1(C)c2cc(C#N)ccc2-c2ccc(N3c4ccccc4Oc4ccccc43)cc21` returned a fluorescence lifetime (in C1CCCCC1) of 1.89 ns; a fluorescence lifetime (in C1CCOC1) of 9.74 ns; a fluorescence lifetime (in CC#N) of 1.23 ns; a fluorescence lifetime (in Cc1ccccc1) of 4.94 ns; a fluorescence lifetime (in ClC(Cl)Cl) of 11.6 ns.

`CCCCCCCCN1c2ccccc2Sc2cc(/C=C/c3ccc(N(c4ccc(/C=C/c5ccc6c(c5)Sc5ccccc5N6CCCCCCCC)cc4)c4ccc(/C=C/c5ccc(/C=C/c6ccc(N(c7ccc(/C=C/c8ccc(N(c9ccccc9)c9ccccc9)cc8)cc7)c7ccc(/C=C/c8ccc(N(c9ccccc9)c9ccccc9)cc8)cc7)cc6)c6nsnc56)cc4)cc3)ccc21` came in with a fluorescence lifetime (in C1CCOC1) of 1.76 ns; a fluorescence lifetime (in CCOC(C)=O) of 1.79 ns; a fluorescence lifetime (in Cc1ccccc1) of 3.49 ns; a fluorescence lifetime (in ClC(Cl)Cl) of 2.38 ns; a fluorescence lifetime (in ClCCl) of 1.75 ns.

Regarding `COc1ccc(N(c2ccccc2)c2ccc(OC)cc2)cc1`, the fluorescence lifetime (in Cc1ccccc1) was found to be 2.27 ns.

In turn, `COc1ncccc1B(O)O` yielded a fluorescence lifetime (in C1COCCO1) of 0.415 ns; a fluorescence lifetime (in CC(C)O) of 0.399 ns; a fluorescence lifetime (in CCCCCC) of 0.211 ns; a fluorescence lifetime (in CCCCCCC) of 0.253 ns; a fluorescence lifetime (in CCCCCCCC) of 0.299 ns; a fluorescence lifetime (in CCCCCCCCO) of 0.463 ns. The fluorescence lifetime worked out at 0.499 ns (in CCO) and 1.57 ns (in CO).

As for `CC1(C)c2ccccc2N(c2ccccc2)c2ccc(S(=O)(=O)c3ccc4c(c3)C(C)(C)c3ccccc3N4c3ccccc3)cc21`, for the setting “in O=P(c1ccccc1)(c1ccccc1)c1ccccc1Oc1ccccc1P(=O)(c1ccccc1)c1ccccc1”, the fluorescence lifetime was 2.06 ns.

In the case of `Cc1cc(C)c2c(c1)c1cc(C)cc(C)c1n2-c1ccc2c(c1)B(c1c(C(C)C)cc(C(C)C)cc1C(C)C)c1cc(-n3c4c(C)cc(C)cc4c4cc(C)cc(C)c43)ccc1N2c1ccccc1`, the fluorescence lifetime under setting [1] stood at 9 ns.

Regarding `CCOc1ccc(/C=C/c2nc(N3CCOCC3)c3c([n+]2[O-])CCCC3)cc1`, the fluorescence lifetime (in ClCCl) was 8.2 ns.

Turning to `COc1ccc(-c2cc3c(s2)c(-c2ccccc2)cc(=O)n3C)cc1`, the fluorescence lifetime (in ClCCl) stood at 4.69 ns.

Regarding `CCN(CC)c1ccc2c(-c3ccc(S(=O)(=O)O)cc3S(=O)(=O)[O-])c3ccc(=[N+](CC)CC)cc-3oc2c1`, the fluorescence lifetime (in CC#N) is 2.47 ns, the fluorescence lifetime (in CCO) was found to be 3 ns, the fluorescence lifetime (in CN(C)C=O) is 2.91 ns and the fluorescence lifetime (in O) was found to be 1.78 ns.

Regarding `COc1ccc(N2c3cc(OC)ccc3N=c3cc4c(cc32)=Nc2cc(C(C)(C)C)cc(C(C)(C)C)c2O4)cc1`, under “in CCCCCC”, the fluorescence lifetime turned out to be 1.14 ns.

For the compound `CCOC(=O)c1ccc(C2=CC3=c4cc(-c5ccc(C(=O)OCC)cc5)c5nc(C(F)(F)C(F)(F)C(F)(F)F)nc6c(-c7ccc(C(=O)OCC)cc7)cc(c4c65)C4=CC(c5ccc(C(=O)OCC)cc5)=C5N=C(C(F)(F)C(F)(F)C(F)(F)F)N=C2C5C43)cc1` (stereo unspecified), under “in C1CCOC1”, the fluorescence lifetime was found to be 2.8 ns.

Take `COc1ccc2cc(C#Cc3ccc([N+](=O)[O-])cc3)ccc2c1`: the fluorescence lifetime is 0.57 ns (in C1CCOC1), 0.77 ns (in ClC(Cl)Cl) and 0.32 ns (in ClCCl).

As for `C#Cc1ccc2ccc3cccc4ccc1c2c34`, the fluorescence lifetime by setting is: (in C1CCCCC1) 14.9 ns; (in CC#N) 13.4 ns; (in CO) 17.8 ns; (in ClCCl) 20.5 ns.

With `CCNc1ccc2c(C(F)(F)F)cc(=O)oc2c1`, the fluorescence lifetime came out at 3.67 ns (in C1CCC2CCCCC2C1); 3.56 ns (in C1CCCCC1); 3.55 ns (in CC1CCCCC1); 5.23 ns (in CC#N); 5.08 ns (in CC(C)=O); 5.14 ns (in CC(C)O). For the same compound, the fluorescence lifetime is, setting by setting: (in CCC(C)CC) 3.39 ns; (in CCCC(C)C) 3.38 ns; (in CCCCCC) 3.3 ns; (in CCCCCCO) 5.23 ns; (in CCCCO) 5.24 ns; (in CCO) 5.04 ns. Further, the fluorescence lifetime worked out at 4.83 ns (in CCOC(C)=O) and 4.84 ns (in CO).

For `CN(CC(O)c1cccc(O)c1)c1ccc([N+](=O)[O-])c(C2CC(c3cccc4ccccc34)=NN2c2ccccc2)c1` (stereo unspecified), the fluorescence lifetime was found to be 1.14 ns (in C1CCCCC1); 3.56 ns (in C1CCOC1); 3.58 ns (in C1COCCO1); 3.95 ns (in CC#N); 3.42 ns (in CC(C)O); 4.01 ns (in CCOC(C)=O). The fluorescence lifetime is 2 ns (in CCOCC); 3.01 ns (in CO); 1.72 ns (in Cc1ccccc1); 2.8 ns (in ClC(Cl)Cl); 2.42 ns (in O).

`Cc1ccc(C2=C3C=CC(C#Cc4ccccc4)=[N+]3[B-](F)(F)n3c(Cl)ccc32)cc1`: the fluorescence lifetime came to 4.31 ns (in C1CCCCC1); 4.24 ns (in C1CCOC1); 4.43 ns (in C1COCCO1); 4.34 ns (in CCOC(C)=O); 4.25 ns (in CO); 4.45 ns (in Cc1ccccc1). Under “in ClC(Cl)Cl”, the fluorescence lifetime was found to be 4.73 ns.

On to `CCN1C(=CC2=C([O-])C(=CC3=[N+](CC)c4ccccc4C3(C)C)C2=O)C(C)(C)c2ccccc21`, for which the fluorescence lifetime is, setting by setting: (in CO) 0.2 ns; (in ClC(Cl)Cl) 1.52 ns.

`CCN(CC)c1ccc2cc(/C=C/c3ccccc3)c(=O)oc2c1` registered a fluorescence lifetime (in CC#N) of 2.25 ns.

Turning to `CCOC(=O)CCCCCn1c2ccc(F)cc2c(=O)c2cc3c(cc21)c(=O)c1cc(F)ccc1n3CCCCCC(=O)OCC`, the fluorescence lifetime (in CO) came to 22.7 ns.

The compound `CC(C)[Si](C#Cc1cc2c(C#C[Si](C(C)C)(C(C)C)C(C)C)c(C#C[Si](C(C)C)(C(C)C)C(C)C)c3cc(C#C[Si](C(C)C)(C(C)C)C(C)C)cc4c(C#C[Si](C(C)C)(C(C)C)C(C)C)c(C#C[Si](C(C)C)(C(C)C)C(C)C)c(c1)c2c34)(C(C)C)C(C)C` registered a fluorescence lifetime (in ClCCl) of 14.1 ns.
